Laboratory results: patent US20230075937A1, “METHODS FOR STRENGTHENING AND REPAIRING HAIR” (Living Proof, Inc., priority 2021, published 2023)

Columns and labels:
Design in all cases: species or system human
[1] = Differential scanning calorimetry (DSC) of hair, denaturation temperature (Td); conditions: for hair denaturation temperature: post-treatment pH 2, 5 min
Protocol: To explore treatment with PA and PA-GL, studies were performed using 3× bleached hair as a damaged hair model (each bleaching was done with a mixture of Bleaching powder (BW2) and 40V clear developer at 1:2 ratio, for 1 hour at room temperature). […] Differential scanning calorimetry (DSC) was performed on tresses at wet stage to determine the effect of phytic acid treatment on hair denaturation temperatures (Td). For wet stage DSC, a hair sample of 3-5 mg in 50 μL Deionized water sealed and equilibrated (overnight) in a stainless steel pressure resistant high-volume pan is heated from 25° C. to 180° C. at a 5 ° C./min heating rate. […] The heat damaged hair was prepared by subjecting virgin brown hair to 4 cycles of heat treatments. In each cycle, hair was treated with Deionized water (1 mL per 1.5 g of hair), massaged for 30 s followed by heat treatment (blow dry until dry at medium heat setting, flat iron at 450° F. for 10 strokes at a rate of 10 seconds per stroke from root to tip). At the end of 4 cycles of heat treatments, the hair tress is dialyzed overnight in Deionized water and air dried before DSC testing. The PA treatment on the heat damaged hair was performed using a 2 wt % PA aqueous solution at pH 4.5 for 30 min followed by blow dry. […] The heat protection benefit provided by PA using DSC was also explored, for which virgin hair with or without PA pre-treatment was subjected to 3 cycles of heat treatments. A virgin control sample was also added for comparison, which was prepared by treating the virgin brown hair with Deionized water (1 mL per 1.5 g of hair), massaged 30 seconds and air dried. For each heat treatment cycle, hair sample was blow dried until dry at medium heat setting, and flat ironed at 450° F. for 10 strokes at a rate of 10 seconds per stroke from root to tip. After three cycles of heat treatments, hair samples were dialyzed overnight in DI water and air dried before DSC testing. […] To explore strengthening benefits of PA in a hair care formulation, a PA formulation containing 0.75 wt % PA at pH 4-4.5 was used as an example. The 3× bleached hair was treated with 0.25 g of the PA formulation for 10 min followed by blow dry. Differential scanning calorimetry was performed on tresses to determine the effect of phytic acid treatment on hair denaturation temperatures (Td). […] The heat damaged hair was prepared by subjecting virgin brown hair to 4 cycles of heat treatments. In each cycle, hair was treated with Deionized water (1 mL per 1.5 g of hair), massaged for 30 s followed by heat treatment (blow dry until dry at medium heat setting, flat iron at 450° F. for 10 strokes at a rate of 10 seconds per stroke from root to tip). At the end of 4 cycles of the heat treatments, the hair tress is dialyzed overnight in Deionized water and air dried before DSC testing. […] Furthermore, the capability of PA formulation to protect hair from future chemical treatments (bleaching and coloring) was explored. In this study, two sets of treatments were performed and for each set three replicates were included. In Set I, a virgin tress was bleached once (1st bleach), followed by 12 cycles of shampoo and conditioner washes, then another bleach (2nd bleach). In Set II, similar bleaching and washing process was taken except that the tress was treated with PA formulation after the 1st bleach and 3rd, 6th, 9th, and 12th wash. In both bleaching steps, hair was treated with a mixture of BW2 bleaching powder and clear 30 V developer (1:1.5 ratio, 5 g per 1.5 g of hair) for 20 min under heat (high heat setting in a Belvedere hooded dryer), followed by 30 s water rinse and air dry at room temperature. The hair denaturation temperature (Td) was collected after each bleach treatment and every 3 washing cycles. […] Heat protection provided by the PA formulation using DSC was also explored. Here, three groups of hair samples were compared: virgin, heat control, and PA formulation treated. […]

[2] = Dia-Stron single fiber mechanical testing at wet stage
Excerpt: Additionally, the strengthening benefits of PA and PA-GL blend treatments were confirmed by Dia-Stron single fiber mechanical testing at wet stage. For wet stage single fiber method, hair fibers (≥20 fibers per treatment) at 30 mm length are fixed by 2 brass crimps at the ends and mounted on a Dia-stron tray. Initial dimension measurements are collected using a Dia-Stron FDAS770 (double ended samples, sample size of 30 mm, no of slices of 5 under one rotation per slice), followed by equilibration in Deionized water for at least 2 h prior to testing. All fiber tensile measurements are performed using a Dia-Stron MTT686/MTT690 (under 100% extension at gauge force of 2N, break threshold of 5 g, rate of 20 mm/min, maximum force of 2000 gmf and premature failure threshold of 10% strain).

[3] = Differential wetting characterization (DWC), water contact angle
Protocol: In this method, a pair of hair fibers is mounted on an in-house built stage in a horizontal plane with a separation of ˜0.75 mm. A droplet of deionized water (1 μL) is then applied onto the fiber pair by using a micro syringe. The droplet is observed using a Nikon microscope under 5× magnification and the image is taken using the incorporated digital camera. In the image, the contact angles of the water droplet on the fiber pair are measured respectively using the Nikon Advance Research software. The relative surface hydrophobicity of the fiber pair is correlated to the resulting contact angles, of which the greater value indicates higher hydrophobicity. […]

[4] = Modified Lowry Protein Assay, hair protein loss
Protocol: In addition, surface repair benefits from the PA or PA-GL treatments were evaluated by a protein loss assay. It is known that hair cuticle damage after various chemical treatments such as bleaching and perming results in a higher protein loss. To quantify the protein loss before and after treatments, a Modified Lowry Protein Assay was employed. In this method, a Lowry assay (Pierce Modified Lowry Protein Assay Kit, working range is at 1-1500 μg/mL) followed by absorbance measurement using UV-Visible Spectrophotometer (λmax at 740-760 nm) is used to quantify hair protein loss for a sample size of 250 mg of hair in 4 mL of deionized water.

[5] = High humidity test, hair tress area change; conditions: 3× bleached hair, 65% RH, vs untreated bleached hair
Protocol: In this method, hair tresses are exposed to high humidity at 65% RH at 25° C. for 30 min and the area of hair tresses before and after exposure to humidity is quantified using Image J application.

[6] = Relative hair diameter swelling by environmental scanning electron microscopy; conditions: 3× bleached hair; 2 wt % PA pH 4-4.5, 30 min, blow dry; 10% to 95% RH
Protocol: All measurements were carried out using a FEI Quanta 200 FEG MKII scanning electron microscope, operating at 15 kV, with relative humidity ranging from 10% to 95%. Single source virgin brown hair was bleached three times to obtain a 3× bleached hair model (each bleaching was done with a mixture of bleaching powder (BW2) and 40V clear developer at 1:2 ratio for 1 hour at room temperature, followed by 30 s water rinse and air-dry at room temperature).

[7] = Fracture patterns of fibers broken in Dia-stron tensile testing; conditions: 3× bleached hair; 2 wt % PA pH 4-4.5, 10 min, blow dry (virgin 34%, bleached 6%)
Protocol: Depending on the level of hair damage, hair fibers may break with very different fracture patterns when pulling to break. […] Fracture patterns of fibers broken from Dia-stron tensile testing were examined under optical microscope to understand the relationship between fracture pattern and hair damage level. […] In contrast, when the bleached hair was treated with a 2 wt % PA aqueous solution at pH 4-4.5 for 10 min, followed by blow dry, 38% smooth fractures were observed, close to that for virgin hair, indicating effective internal hair structure repair and complete restore by PA.
Hair fracture patterns of 3× bleached and PA formulation treated fibers after Dia-stron tensile testing were also examined and compared to those for virgin and bleached hair.

[8] = 3× bleached hair, 2 wt % solution, heat styling (blow dry or flatiron)
[9] = bleached hair, PA at 2, 5 or 15 wt % in Restore Repair Leave-In conditioner, flatiron
[10] = bleached hair, treatment pH 2 to 5, flatiron
[11] = colored hair, post-treatment, blow dry
[12] = more damaged model (2× bleached at 45° C.), 2 wt % PA pH 2, 1 hour

SMILES: O=P(O)(O)O[C@H]1[C@H](OP(=O)(O)O)[C@@H](OP(=O)(O)O)[C@H](OP(=O)(O)O)[C@@H](OP(=O)(O)O)[C@H]1OP(=O)(O)O [PA, phytic acid]
- Td after 10 shampoo and conditioner washing cycles ([1]; 3× bleached hair treated with 2 wt % PA aqueous solution): ≥ 149 °C
- hair denaturation temperature (Td) ([1]; 3× bleached hair, 2 wt % aqueous solution pH 2, 15 min, heat styling, vs virgin hair): fully recovered to the virgin level
- denaturation temperature ([1]; 3× bleached hair, PA at 2 wt % or higher concentration, vs virgin hair): recovered back to or even beyond the virgin level
- hair denaturation temperature ([1]; ATG-reduced hair, blow dry, vs virgin hair): recovered to the level of virgin hair
- hair denaturation temperature ([1]; colored 3× bleached hair, blow dry): recovers to the level of the virgin hair
- recovery in Td ([1]; heat damaged hair (4 heat cycles), 2 wt % PA pH 4.5, 30 min, blow dry): 5 °C
- immediate improvement in Td ([1]; treated after 1st bleach (Set II)): 3 °C
- Td over 12 washing cycles and after 2nd bleach ([1]; treated after 1st bleach and 3rd, 6th, 9th, 12th wash, vs virgin level): remained above the virgin level
- Td after 3 heating cycles ([1]; virgin hair treated before each heat treatment (flat iron 450° F.), heat control 7° C. decrease): same Td as virgin hair
- change in Td upon 3 cycles of heat treatments ([1]; virgin hair with PA pre-treatment, heat protection): didn't show any significant change
- Young's modulus [2, 8]: greatly improved
- break stress [2, 8]: greatly improved
- PA concentration at which significant improvement in Young's modulus and break stress was achieved ([2]; 3× bleached hair, PA 0.1 to 20 wt %, 15 min, heat styling): ≥ 2 wt %
- Young's modulus [2, 9]: significant increases
- break stress [2, 9]: significant increases
- Young's modulus [2, 10]: greatly improved
- break stress [2, 10]: greatly improved
- Young's modulus [2, 11]: greatly improved
- break stress [2, 11]: greatly improved
- Young's modulus [2, 12]: greatly improved
- break stress [2, 12]: greatly improved
- increase in water contact angle ([3]; 3× bleached hair, vs untreated bleached hair): 5 °
- increase in water contact angle ([3]; ATG-reduced hair): 5 °
- increase in water contact angle ([3]; colored hair): 5 °
- reduction of protein loss ([4]; 3× bleached hair, vs untreated bleached hair (6.6 mg/g hair)): 27%
- reduction of protein loss ([4]; ATG-reduced hair (7.9 mg/g hair untreated)): 58%
- hair tress area increase ([5]; 25° C., 30 min): much less area increase
- difference in area increase after 7 shampoo and conditioner washing cycles [5]: remained significant
- relative diameter swelling rate [6]: greatly reduced, even lower than virgin hair
- smooth fractures [7]: 38%
